# Several values for one entry are separate records, joined by “and”; a condition that tells them apart may be missing. Equal values may be shown once. Entries after “also recorded” stand apart in the source; their conditions may differ.
# How the values were obtained:
# [1] = test system: R55 mRNA; assay: Rabbit ovary explant culture treated with EGF, R55 mRNA by Northern blot; assay type: cell-based; details: EGF 50 ng/ml
# Excerpt: A method to culture pieces of ovaries from 14 d.pp. rabbits was developed, modeled after techniques used for ovaries from neonatal mice and bovine embryos. Tissue pieces (1-2 mm^3) from 14 d.pp. rabbit ovaries containing only primordial follicles were placed in cell culture inserts with 3.0 mm pores and cultured in 24-well plates with 300 microliters medium (50-50 blend of (a) F-12 Nutrient Mixture (Ham)(1×), liquid contains L-glutamine, and (b) Medium 199 (1×), liquid contains Earle's modified salts, 1.250 mg/L sodium bicarbonate, and L-glutamine.
# Cultures were treated with mouse EGF (50 ng/ml) and analyzed for the level of expression of R55 mRNA. Treatment with EGF produced a 3-fold increase in amount of R55 mRNA (normalized to 28 S) as compared to controls incubated in medium alone (FIG. 3).
# Ovaries were collected from 2 week old rabbits and the tissue mince into small pieces (-1 mm^3). These ovarian explants were then cultured for 6 days in the presence or absence of EGF (50 ng/ml). Total RNA was isolated and the relative amount of R55mRNA measured by Northern blot analysis. The result of 3 experiments were averaged and graphed. The level of P55 expression in the controls was defined as one. The level of expression of the epidermal growth factor treated samples was approximately 3 fold of that seen in the controls. […] This effect is due to an increase in the number of follicles being activated.
# [2] = test system: pig ZP proteins; assay: Pig ovarian explant culture with EGF, ZP proteins by protein dot blot; assay type: cell-based; details: EGF 50 ng/ml, 6 days
# Description: For this first experiment ovaries were collected form pigs at three to five weeks of age at which the pig ovaries are very immature. The ovaries were then minced into small pieces and grown in ovarian explant cultures with or without EGF (similar to what we have done with the rabbit ovaries). After 6 days of culture the tissue was collected and in this case proteins from these samples were isolated and solubilized. The amount of total zona pellucida protein in these samples was determined using an antibody we developed in guinea pigs against total zona pellucida proteins. The amount of porcine zona pellucida proteins in these samples were determined by dot blot analysis and quantified by optical density. The relative amount of zona pellucida protein is graphed for each sample (control and EGF treated 50 ng/ml). This was done for 3 replicates.
# [3] = test system: pig ZP proteins in isolated primordial follicles; assay: Isolated pig primordial follicles cultured with EGF, ZP proteins by protein dot blot; assay type: cell-based; details: EGF 50 ng/ml, 6 days
# Description: FIG. 16 graphically presents the results of studying the effect of EGP on ZP expression in isolated primordial follicles. As in the previous experiment, ovaries were collected from immature pigs at 3 to 5 weeks of age. In this case the ovaries were minced and the follicles enzymatically separated from the connective tissues and isolated. The population of small primordial follicles were collected and grown in cell culture well inserts. These were cultured for six days in medium alone as control or in medium supplemented with 50 nanograms per ml of EGF. After 6 days of culture the follicles were collected and proteins isolated and solubilized. The amount of total zona pellucida protein in these samples was determined using an antibody developed in guinea pigs against total zona pellucida proteins. The amount of porcine zona pellucida proteins in these samples were determined by dot blot analysis and quantified by optical density. The relative amount of zona pellucida protein is graphed in FIG. 16 for each sample (control and EGF treated 50 ng/ml). This was done for 3 replicates. […] This is consistent with the hypothesis that EGF can stimulate activation of dormant primordial follicles as indicated by the expression of zona pellucida genes.
# [4] = test system: granulosa cells from primary pig follicles; assay: DNA synthesis in granulosa cells from primary pig follicles; assay type: cell-based; details: EGF 50 ng/ml
# [5] = test system: FSH receptors; assay: Expression of FSH receptors in granulosa cells from antral pig follicles; assay type: cell-based; details: EGF 50 ng/ml
# [6] = test system: mini-pigs; details: minipig, in vivo; cited from earlier work
# [7] = test system: neonatal mouse ovaries; details: neonatal mouse ovaries cultured in vitro; cited from earlier work
# [8] = test system: mature rats; details: intravenously infused for a four-week period; cited from earlier work
# [9] = test system: young female pigs; assay: In vivo rec-pEGF by subcutaneous osmotic pumps, Group 2 pigs, body and organ weights at necropsy
# [10] = test system: antiserum to recombinant porcine EGF; details: radioimmunoassay with antiserum to recombinant porcine EGF; cited from earlier work
# [11] = test system: young female pigs; assay: In vivo rec-pEGF by subcutaneous osmotic pumps, Group 1 pigs, histological evaluation of ovarian follicles; set-up: species or system pig
# Description: Finally, FIG. 23 is a graph which confirms that in vivo administration of rec-pEGF to the Group 1 pigs, above, starting at 30 d.pp. and administered for fourteen consecutive days at a 540 μg/day dose by placement of subcutaneous osmotic pumps in each pig. Ovaries from a sub-set of Group 1 pigs were examined at 70 d.pp. when the first cohort of growing follicles is normally expected to be present. […] Data was obtained by counting the number of hematoxylin/eosin stained follicles in a counting frame (960×1400 μm), and only sections through the center of a follicle with the germinal vesicle present were used for the evaluation. Growing follicles were identified based upon the presence of at least one cuboidal layer of granulosa cells surrounding the oocyte.
# [12] = test system: Swiss 3T3 fibroblast cells; assay: 3T3 fibroblast proliferation assay ([H3]-thymidine incorporation); assay type: cell-based; details: quiescent Swiss 3T3 cells
# Description: In FIG. 21, the bioactivity of EGF was tested in a 3T3 fibroblast proliferation assay. EGF was added to quiescent Swiss 3T3 fibroblast cells and stimulation of fibroblast proliferation was measured by [H^3 ]-thymidine incorporation as an indicator of DNA synthesis.
# [13] = test system: young female pigs; details: pig, in vivo
# [14] = average of ten largest follicles, 540 μg/day for fourteen days
substance,measurement,setting,value
EGF: 53-residue polypeptide that is mitogenic for a variety of cell types both in vivo and in vitro,ratio of R55 to 28S optical densities from Northern blots,"[1]; 6 days, ovarian explants of 2 week old rabbits, control = 1, single experiments",2.87 and 3.09 and 3.28
same,"ratio of R55 to 28S optical densities from Northern blots, average","[1]; 6 days, average of 3 experiments, control = 1",3.08
same,expression of R55 in primordial rabbit ovarian follicles (in words),[1]; Northern blot,increased expression of R55; also recorded: significant increases in expression of R55
same,Optical density of ZP proteins from ovarian explant cultures,"[2]; ovaries of pigs 3 to 5 weeks of age, single replicates",6355 and 6086 and 7193
same,increase in the amount of zona pellucida protein in EGF treated ovarian explants,[2]; versus control,approximately a two fold increase
same,"Optical density of ZP proteins from ovarian explant cultures, Avg. ZP",[2]; average of 3 replicates,6545
same,Optical density of ZP proteins from cultured primordial follicles,"[3]; follicles of pigs 3 to 5 weeks of age, single replicates",1815 and 371 and 1697
same,expression of zona pellucida proteins in primordial follicles (in words),[3]; versus medium alone,significant increase
same,"Optical density of ZP proteins from cultured primordial follicles, Avg. ZP",[3]; average of 3 replicates,1294
same,DNA synthesis in granulosa cells from primary pig follicles,[4],stimulates
same,expression of FSH receptors in granulosa cells from antral pig follicles,[5],stimulates
same,organ growth in mini-pigs,[6],"stimulate growth of heart, liver, and urinary tract"
same,number of eggs recovered for in vitro maturation and fertilization,[7],increased the number of eggs recovered
same,number of corpora lutea (CL),[8],increase in the number of corpora lutea
same,ovarian weights,[8],ovarian weights were increased
same,Avg. Daily Gain,"[9]; Group 2, N = 3",0.32 ± 0.06 kg/day
same,Day 14 Weight,"[9]; Group 2, N = 3",4.6 ± 0.24 kg
same,Day 70 Weight,"[9]; Group 2, N = 3",22.7 ± 3.40 kg
"mouse EGF: EGF originally purified from the male mouse submaxillary gland; used in the rabbit ovary cultures (NSYPGCPSSYDGYCLNGGVCMHIESLDSYTCNCVIGYSGDRCQTRDLRWWELR; Epidermal growth factor; UniProt P01132 977-1029, looked up)",increase in amount of R55 mRNA as compared to controls,"[1]; normalized to 28S, controls in medium alone",3 fold
same,cross-reactivity,[10],< 1%
"rec-pEGF: recombinant porcine EGF expressed in a bacterial system, with 6X histidine tag and 19 vector amino acids",greater population of growing follicles than in control or non-treated groups,"[11]; 540 μg/day for fourteen days from 30 d.pp., necropsy fourteen days post-treatment",70%
same,size of ovarian follicles (in words),"[11]; 540 μg/day for fourteen days from 30 d.pp., versus control or non-treated groups",larger ovarian follicles
same,number of ovarian follicles at 70 d.pp. (in words),"[11]; 540 μg/day for fourteen days from 30 d.pp., versus control group and group administered nothing",significantly increased
same,follicle diameter greater than that of the control group,[11]; [14],over 100%
same,follicle diameter greater than that of the group given nothing,[11]; [14],over 70%
same,Stimulation of fibroblast proliferation,[12],comparable to that of purified mouse EGF
same,"effect on organ weights, body weights and general pathology",[13],lack of effect
same,increase in size of the ovaries,"[9]; 600 μg/day for fourteen days from 21 d.pp., tissues collected at 10 weeks, versus control and untreated group",~100%
